The values below come from patent publication US10392390B2, “5-HT2C receptor agonists and compositions and methods of use” (Arena Pharmaceuticals, Inc., priority 2015, dated 2019).

The EC50 is the concentration at which the effect is half-maximal. The Ki is the equilibrium dissociation constant of an inhibitor or competing ligand from its target.

For data set [1], the target named is T1, 5-HT2C receptor (Homo sapiens, UniProt P28335).
T1 construct: expressed in transfected cells; host or cells: HEK293
T1 sequence (P28335 33-458): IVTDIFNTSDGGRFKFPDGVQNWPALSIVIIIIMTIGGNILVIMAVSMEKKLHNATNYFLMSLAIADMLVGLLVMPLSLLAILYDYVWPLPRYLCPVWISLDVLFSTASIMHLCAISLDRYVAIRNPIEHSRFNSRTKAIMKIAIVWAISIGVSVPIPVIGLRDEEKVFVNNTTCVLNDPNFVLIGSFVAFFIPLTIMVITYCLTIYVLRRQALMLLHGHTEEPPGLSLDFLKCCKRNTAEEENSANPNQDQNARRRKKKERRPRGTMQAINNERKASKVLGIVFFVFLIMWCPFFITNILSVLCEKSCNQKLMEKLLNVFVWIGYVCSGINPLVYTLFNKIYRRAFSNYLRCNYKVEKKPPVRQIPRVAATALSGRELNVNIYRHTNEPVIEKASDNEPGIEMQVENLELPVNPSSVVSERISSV
Description: IP accumulation assay in HEK293 cells expressing recombinant 5-HT2 receptors. It counts as cell-based. The conditions noted are these: 2 h at 37° C.
Description: (§1) HEK293 cells expressing recombinant 5-HT2 receptors were added to sterile poly-D-lysine-coated 96-well microtiter plates (35,000 cells/well) and labeled with 0.6 μCi/well of [^3H]inositol in myoinositol-free DMEM for 18 h. Unincorporated [^3H]inositol was removed by aspiration and replaced with fresh myoinositol-free DMEM supplemented with LiCl (10 mM final) and pargyline (10 μM final). Serially diluted test compounds were then added and incubation was conducted for 2 h at 37° C. Incubations were then terminated by lysing cells with the addition of ice-cold 0.1 M formic acid followed by freezing at −80° C. After thawing, total [^3H]inositol phosphates were resolved from [^3H]inositol using AG1-X8 ion exchange resin (Bio-Rad) and [^3H]inositol phosphates were measured by scintillation counting using a Perkin Elmer TopCount® scintillation counter. All EC50 determinations were performed using 10 different concentrations and triplicate determinations were made at each test concentration.

Data set [2] deals with T1, 5-HT2C receptor. Description: Radioligand binding assay, [125I]DOI competition. The following applies: HEK293 cell membranes, read-out: DOI Binding Ki 2C.
Description: (§2) HEK293 cells stably expressing recombinant 5-HT2 receptors were harvested, suspended in ice-cold phosphate buffered saline, pH 7.4 (PBS), and then centrifuged at 48,000 g for 20 min at 4° C. The resulting cell pellet was then re-suspended in wash buffer containing 20 mM HEPES, pH 7.4 and 0.1 mM EDTA, homogenized on ice using a Brinkman Polytron, and centrifuged (48,000 g for 20 min at 4° C.). The pellet was then resuspended in 20 mM HEPES, pH 7.4, homogenized on ice, and centrifuged (48,000 g for 20 min at 4° C.). Crude membrane pellets were stored at −80° C. until used for radioligand binding assays.
Radioligand binding assays were performed using the commercially available 5-HT2 receptor agonist [^125I]DOI as the radioligand and nonspecific binding was determined in the presence of unlabeled DOI at a saturating concentration of 10 μM. Competition experiments utilized 5-HT2 receptor expressing HEK293 cell membranes obtained as described in Example 3 (15-25 μg membrane protein/well) and radioligand at final assay concentrations of 0.4 to 0.6 nM. […] Finally, 25 μL of BetaScint™ scintillation cocktail was added to each well and the plates were counted in a Packard TopCount® scintillation counter. […]
The next data set deals with T2, 5-HT2B receptor (Homo sapiens, UniProt P41595).
T2 construct: expressed in transfected cells; host or cells: HEK293
T2 sequence (P41595 whole entry): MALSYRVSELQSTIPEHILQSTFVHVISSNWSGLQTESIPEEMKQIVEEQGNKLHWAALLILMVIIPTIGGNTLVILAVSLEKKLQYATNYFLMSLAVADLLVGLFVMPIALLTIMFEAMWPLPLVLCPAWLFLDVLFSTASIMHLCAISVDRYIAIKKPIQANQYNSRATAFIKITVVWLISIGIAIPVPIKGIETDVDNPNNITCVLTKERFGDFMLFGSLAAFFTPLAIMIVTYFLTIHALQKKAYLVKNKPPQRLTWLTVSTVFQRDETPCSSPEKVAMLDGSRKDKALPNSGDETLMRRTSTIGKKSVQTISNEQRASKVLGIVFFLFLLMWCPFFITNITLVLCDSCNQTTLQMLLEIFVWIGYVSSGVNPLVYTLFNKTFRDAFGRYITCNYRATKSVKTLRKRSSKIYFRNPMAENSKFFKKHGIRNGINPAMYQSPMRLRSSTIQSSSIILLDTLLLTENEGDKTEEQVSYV
Description: Radioligand binding assay, [125I]DOI competition. The following applies: HEK293 cell membranes, read-out: DOI Binding Ki 2B.

Data set [3] addresses T3, 5-HT2A receptor (Homo sapiens, UniProt P28223).
T3 construct: expressed in transfected cells; host or cells: HEK293
Nature of the data set: Radioligand binding assay, [125I]DOI competition. The conditions noted are these: HEK293 cell membranes, read-out: DOI Binding Ki 2A.
Description: as §2
(§3) Experiments comprised addition of 95 μL, of assay buffer (20 mM HEPES, pH 7.4, 10 mM MgCl2), 50 μL, of membranes, 50 μL, of radioligand stock, and 5 μL of test compound diluted in assay buffer to 96-well microtiter plates, which were then incubated for 1 h at room temperature. Assay incubations were terminated by rapid filtration through PerkinElmer F/C filtration plates under reduced pressure using a 96-well Packard filtration apparatus, followed by washing three times with ice cold assay buffer. Plates were then dried at 45° C. for a minimum of 2 h. Finally, 25 μL of BetaScint™ scintillation cocktail was added to each well and the plates were counted in a Packard TopCount® scintillation counter. […]

In data set [4] the target is T3, 5-HT2A receptor. Nature of the data set: IP accumulation assay in HEK293 cells expressing recombinant 5-HT2 receptors. It counts as cell-based. The following applies: 2 h at 37° C.
Description: as §1
For data set [5] the following is noted: reports that led to withdrawal in 1998; cited from earlier work.
For data set [6] the following is noted: a patient with Lennox-Gastaut syndrome; cited from earlier work.
For data set [7] the following is noted: cited from earlier work.
For data set [8] the following is noted: cited from earlier work. This is another data set of the same source.
The conditions of data set [9]: one study, patients without diabetes; cited from earlier work.
Setting [10] is: pivotal phase 3 program, up to two years.
[11] abbreviates: top quartile of patients, second phase 3 trial.

The structures appear in SMILES notation.

T3 sequence (P28223 whole entry): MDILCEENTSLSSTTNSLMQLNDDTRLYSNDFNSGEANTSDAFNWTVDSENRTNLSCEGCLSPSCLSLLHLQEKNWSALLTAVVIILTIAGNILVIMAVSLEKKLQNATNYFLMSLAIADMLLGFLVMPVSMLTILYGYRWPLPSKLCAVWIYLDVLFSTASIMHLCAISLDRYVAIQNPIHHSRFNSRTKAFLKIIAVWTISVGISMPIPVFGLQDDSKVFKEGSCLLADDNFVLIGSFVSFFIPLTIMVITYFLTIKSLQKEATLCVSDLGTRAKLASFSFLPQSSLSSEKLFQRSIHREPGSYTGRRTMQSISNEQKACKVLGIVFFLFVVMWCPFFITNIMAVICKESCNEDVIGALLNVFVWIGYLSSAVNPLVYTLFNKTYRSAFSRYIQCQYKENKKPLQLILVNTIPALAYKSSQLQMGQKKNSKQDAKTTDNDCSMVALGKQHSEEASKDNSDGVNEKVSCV
Description for 5-HT2B receptor: as §2, §3

In the case of `CCC1CN2CCNCc3ccc(C(=O)NCC(F)F)c1c32` (single isomer, unassigned) [1st eluting enantiomer in example 1.5, N-(2,2-difluoroethyl)-7-ethyl-1,2,3,4,6,7-hexahydro-[1,4]diazepino[6,7,1-hi]indole-8-carboxamide], on 5-HT2C receptor [1], the EC50 was found to be 15200 nM.
On to `CCC1CN2CCNCc3ccc(C(=O)NCC(F)F)c1c32` (single isomer, unassigned) [2nd eluting enantiomer in example 1.5, N-(2,2-difluoroethyl)-7-ethyl-1,2,3,4,6,7-hexahydro-[1,4]diazepino[6,7,1-hi]indole-8-carboxamide], for which the Ki at 5-HT2C receptor [2] is 19.7 nM; on 5-HT2B receptor, 92300 nM; at 5-HT2A receptor [3], 6580 nM. In addition, the concentration giving a half-maximal response (EC50) on 5-HT2C receptor [1] is 7.09 nM.
As to `CC1(C)CN2CCNCc3ccc(C(=O)NCC(F)F)c1c32` [Compound 6, N-(2,2-difluoroethyl)-7,7-dimethyl-1,2,3,4,6,7-hexahydro-[1,4]diazepino[6,7,1-hi]indole-8-carboxamide], at 5-HT2C receptor [1], the 50% effective concentration (EC50) was determined as 195 nM.
For the compound `O=C(NCC(F)F)c1ccc2c3c1C1(CCC1)CN3CCNC2` [Compound 7, N-(2,2-difluoroethyl)-2,3,4,6-tetrahydro-1H-spiro[[1,4]diazepino[6,7,1-hi]indole-7,1′-cyclobutane]-8-carboxamide], the Ki is 36.6 nM on 5-HT2C receptor [2], 6810 nM on 5-HT2B receptor and 6750 nM on 5-HT2A receptor [3]. The EC50 on 5-HT2C receptor [1] was determined as 17.7 nM; at 5-HT2A receptor [4], 160 nM.
In the case of `CCN[C@@H](C)Cc1cccc(C(F)(F)F)c1` [d-fenfluramine], in [5], the “patients with reported cardiac valve defects” value is listed as “up to one third”.
Turning to `CCNC(C)Cc1cccc(C(F)(F)F)c1` (stereo not drawn) [fenfluramine], the “reduction in seizure frequency during treatment” value in [6] is “two-thirds”.
Consider `C[C@H]1CNCCc2ccc(Cl)cc21` [lorcaserin, (R)-8-chloro-1-methyl-2,3,4,5-tetrahydro-1H-3-benzazepine], for which the “reduction in HbA1c” value in data set [7] (10 mg BID, type 2 diabetes) is on record as 0.9%. Besides, the “decrease of mean daily doses of sulfonylureas and thiazolidinediones” value in data set [7] (patients with type 2 diabetes) is 16-24%. Further, the “excess body weight lost” value in [8] (first phase 3 trial, based on a normal BMI of 25) is “about one-third”. Further, in [8] (setting [10]), the “patients who achieved at least 5% weight loss” value was “About two-thirds” and the “patients who achieved at least 10% weight loss” value is “over one-third”. Also, in data set [8] (setting [11]), the average weight loss is on record as 35 pounds and the “average weight loss, of body weight” value is 16%. Besides, the “insulin resistance (HOMA-IR) change” value in data set [9] is listed as −0.4.
